From US20140256660A1, “ANTIBIOTIC CONJUGATES LINKED WITH STEROID DRUGS” (Allergan, Inc., priority 2013, published 2014)

Test system: human recombinant carboxylesterases
Assay: In vitro metabolic stability (rate of metabolite formation) in human recombinant carboxylesterases
Type: in vitro ADME
Conditions: human recombinant carboxylesterases 0.1 mg/mL, 1 μM test compound, pH 6.0, 37° C.
Method: Dutch Belted rabbits were euthanized with an overdose of sodium pentobarbital. The corneas were collected and homogenized in ice-cold potassium chloride solution (pH=7.4). The homogenate was centrifuged at 755×g for 30 min at 4° C. and aliquots of the supernatant were stored at or below −70° C. until metabolism experiments were conducted. Prior to storing the homogenates an aliquot was removed for determination of protein concentrations by calculating the 260 nm absorbance using a spectrophotometer. Human recombinant carboxylesterases were purchased from a commercial vendor (BD Gentest™, Bedford, Mass.)
All metabolic stability experiments were performed in triplicate in 96-well plate format. The final incubation mixture contained 1 μM test compound, 0.3 mg/mL corneal protein homogenate or 0.1 mg/mL human recombinant carboxylesterase mixture in a final volume of 0.5 mL 0.1 M potassium phosphate buffer (pH=6.0). The final percentage of solvent in the incubation was less than 1.0% to prevent inhibition of enzymatic activity. Following a pre-incubation at 37° C., test article (i.e. ester linked hybrids) was added to initiate the reaction. At designated time points (typically less than 60 minutes to capture the linear range of metabolite formation), 0.05 mL aliquots were removed from the incubation mixtures using a clean pipet tip and immediately placed in organic solvent to stop any esterase activity.
Hydrolysis of the metabolites was confirmed to be due to esterase activity and not chemical lability. The samples were analyzed by liquid chromatography with mass spectrometry (LC-MS/MS) detection to determine the metabolite concentrations resulting from the metabolism of ester linked hybrids. Internal standards were used to compensate for variability from sample processing, chromatographic elution, mass spectrometer response and ion suppression by matrix components.

| Compound | Rate of formation Metabolite 2 (Gatifloxacin) (metabolite Gatifloxacin) | Rate of formation Metabolite 1 (Prednisolone) (metabolite Prednisolone) | Rate of formation Metabolite 2 (Moxifloxacin) | also measured |
| --- | --- | --- | --- | --- |
| COc1c(N2CCNC(C)C2)c(F)cc2c(=O)c(C(=O)OCCCC(=O)OCC(=O)[C@]3(O)CC[C@@H]4[C@H]5CCC6=CC(=O)C=C[C@@]6(C)C5[C@H](O)C[C@]43C)cn(C3CC3)c12 (relative stereo) [Compound 41, 4-{2-[(8R,10S,11R,13R,14R,17S)-11,17-dihydroxy-10,13-dimethyl-3-oxo-6,7,8,9,10,11,12,13,14,15,16,17-dodecahydro-3H-cyclopenta[a]phenanthren-17-yl]-2-oxoethoxy}-4-oxobutyl rel-1-cyclopropyl-6-fluoro-8-methoxy-7-(3-methylpiperazin-1-yl)-4-oxo-1,4-dihydroquinoline-3-carboxylate] | – | – | – | Rate of formation Metabolite 1 (Gatifloxacin) (metabolite Gatifloxacin): 7.60 ± 2.1 nM/min/mg; Rate of formation Metabolite 2 (Prednisolone) (metabolite Prednisolone): 74.6 ± 4.1 nM/min/mg |
| COc1c(N2CCNC(C)C2)c(F)cc2c(=O)c(C(=O)OCOC(=O)OCC(=O)[C@]3(O)CC[C@@H]4[C@H]5CCC6=CC(=O)C=C[C@@]6(C)C5[C@H](O)C[C@]43C)cn(C3CC3)c12 (relative stereo) [Compound 42, [({2-[(8R,10S,11R,13R,14R,17S)-11,17-dihydroxy-10,13-dimethyl-3-oxo-6,7,8,9,10,11,12,13,14,15,16,17-dodecahydro-3H-cyclopenta[a]phenanthren-17-yl]-2-oxoethoxy}carbonyl)oxy]methyl rel-1-cyclopropyl-6-fluoro-8-methoxy-7-(3-methylpiperazin-1-yl)-4-oxo-1,4-dihydroquinoline-3-carboxylate] | 668 ± 102 nM/min/mg | 633 ± 85 nM/min/mg | – | – |
| COc1c(N2CCNC(C)C2)c(F)cc2c(=O)c(C(=O)OC(C)OC(=O)OCC(=O)[C@]3(O)CC[C@@H]4[C@H]5CCC6=CC(=O)C=C[C@@]6(C)C5[C@H](O)C[C@]43C)cn(C3CC3)c12 (relative stereo) [Compound 43, 1-[({2-[(8R,10S,11R,13R,14R,17S)-11,17-dihydroxy-10,13-dimethyl-3-oxo-6,7,8,9,10,11,12,13,14,15,16,17-dodecahydro-3H-cyclopenta[a]phenanthren-17-yl]-2-oxoethoxy}carbonyl)oxy]ethyl rel-1-cyclopropyl-6-fluoro-8-methoxy-7-(3-methylpiperazin-1-yl)-4-oxo-1,4-dihydroquinoline-3-carboxylate] | 419 ± 8 nM/min/mg | 298 ± 13 nM/min/mg | – | – |
| COc1c(N2CCNC(C)C2)c(F)cc2c(=O)c(C(=O)OCOC(=O)CCC(=O)OCC(=O)[C@]3(O)CC[C@@H]4[C@H]5CCC6=CC(=O)C=C[C@@]6(C)C5[C@H](O)C[C@]43C)cn(C3CC3)c12 (relative stereo) [Compound 44, ({[1-cyclopropyl-6-fluoro-8-methoxy-7-(3-methylpiperazin-1-yl)-4-oxo-1,4-dihydroquinolin-3-yl]carbonyl}oxy)methyl 2-[(8R,10S,11R,13R,14R,17S)-11,17-dihydroxy-10,13-dimethyl-3-oxo-6,7,8,9,10,11,12,13,14,15,16,17-dodecahydro-3H-cyclopenta[a]phenanthren-17-yl]-2-oxoethyl rel-butanedioate] | 760 ± 110 nM/min/mg | 365 ± 32 nM/min/mg | – | – |
| COc1c(N2C[C@H]3CCCN[C@H]3C2)c(F)cc2c(=O)c(C(=O)OCCCOC(=O)c3ccc(C(=O)OCC(=O)[C@@]4(O)[C@H](C)C[C@H]5[C@@H]6CCC7=CC(=O)C=C[C@]7(C)[C@@]6(F)[C@@H](O)C[C@@]54C)cc3)cn(C3CC3)c12 (relative stereo) [Compound 54, 3-[({1-cyclopropyl-6-fluoro-8-methoxy-7-[(4aR,7aR)-octahydro-6H-pyrrolo[3,4-b]pyridin-6-yl]-4-oxo-1,4-dihydroquinolin-3-yl}carbonyl)oxy]propyl 2-[(8S,9R,10S,11S,13S,14S,16R,17R)-9-fluoro-11,17-dihydroxy-10,13,16-trimethyl-3-oxo-6,7,8,9,10,11,12,13,14,15,16,17-dodecahydro-3H-cyclopenta[a]phenanthren-17-yl]-2-oxoethyl rel-benzene-1,4-dicarboxylate] | – | – | 0.717 ± 0.625 nM/min/mg | Rate of formation Metabolite 1 (Dexamethasone) (metabolite Dexamethasone): 67.8 ± 1.78 nM/min/mg |
| COc1c(N2CC3CCCN(C(=O)OCOC(=O)CCC(=O)OCC(=O)[C@]4(O)CC[C@@H]5[C@H]6CCC7=CC(=O)C=C[C@@]7(C)[C@@H]6[C@H](O)C[C@]54C)C3C2)c(F)cc2c(=O)c(C(=O)O)cn(C3CC3)c12 (relative stereo) [Compound 59, rel-1-cyclopropyl-7-[1-({[(4-{2-[(8R,9R,10S,11R,13R,14R,17S)-11,17-dihydroxy-10,13-dimethyl-3-oxo-6,7,8,9,10,11,12,13,14,15,16,17-dodecahydro-3H-cyclopenta[a]phenanthren-17-yl]-2-oxoethoxy}-4-oxobutanoyl)oxy]methoxy}carbonyl)octahydro-6H-pyrrolo[3,4-b]pyridin-6-yl]-6-fluoro-8-methoxy-4-oxo-1,4-dihydroquinoline-3-carboxylic acid] | – | 416 ± 192 nM/min/mg | 350 ± 180 nM/min/mg | – |
| COc1c(N2CC3CCCN(C(=O)OCOC(=O)CCC(=O)N[C@@H](C(=O)OCC(=O)[C@]4(O)CCC5C6CCC7=CC(=O)C=C[C@@]7(C)C6[C@H](O)C[C@]54C)C(C)C)C3C2)c(F)cc2c(=O)c(C(=O)O)cn(C3CC3)c12 (relative stereo) [Compound 61, rel-1-cyclopropyl-7-{1-[(10R)-14-[(10S,11R,13R,17S)-11,17-dihydroxy-10,13-dimethyl-3-oxo-6,7,8,9,10,11,12,13,14,15,16,17-dodecahydro-3H-cyclopenta[a]phenanthren-17-yl]-5,8,11,14-tetraoxo-10-(propan-2-yl)-2,4,12-trioxa-9-azatetradecan-1-oyl]octahydro-6H-pyrrolo[3,4-b]pyridin-6-yl}-6-fluoro-8-methoxy-4-oxo-1,4-dihydroquinoline-3-carboxylic acid] | – | 11.8 ± 0.5 nM/min/mg | 18.5 ± 1.7 nM/min/mg | – |
| COc1c(N2C[C@@H]3CCCN[C@@H]3C2)c(F)cc2c(=O)c(C(=O)OCOC(=O)OCC(=O)[C@]3(O)CC[C@@H]4[C@H]5CCC6=CC(=O)C=C[C@@]6(C)C5[C@H](O)C[C@]43C)cn(C3CC3)c12 (relative stereo) [Compound 64, [({2-[(8R,10S,11R,13R,14R,17S)-11,17-dihydroxy-10,13-dimethyl-3-oxo-6,7,8,9,10,11,12,13,14,15,16,17-dodecahydro-3H-cyclopenta[a]phenanthren-17-yl]-2-oxoethoxy}carbonyl)oxy]methyl rel-1-cyclopropyl-6-fluoro-8-methoxy-7-[(4aS,7aS)-octahydro-6H-pyrrolo[3,4-b]pyridin-6-yl]-4-oxo-1,4-dihydroquinoline-3-carboxylate] | – | 641 ± 22 nM/min/mg | 644 ± 20 nM/min/mg | – |
